Experimental data: US9670142B2, “1,3-diaminocyclopentane carboxamide derivatives” (Merck Patent GmbH, priority 2013, dated 2017)

Each compound was assayed against human fatty acid synthase FASN (Homo sapiens (Human), UniProt P49327) (assay: Biochemical activity testing of human fatty acid synthase FASN (NADPH fluorescence intensity enzyme assay)). Conditions: human recombinant full-length fatty acid synthase.
human fatty acid synthase FASN, sequence (P49327 whole entry): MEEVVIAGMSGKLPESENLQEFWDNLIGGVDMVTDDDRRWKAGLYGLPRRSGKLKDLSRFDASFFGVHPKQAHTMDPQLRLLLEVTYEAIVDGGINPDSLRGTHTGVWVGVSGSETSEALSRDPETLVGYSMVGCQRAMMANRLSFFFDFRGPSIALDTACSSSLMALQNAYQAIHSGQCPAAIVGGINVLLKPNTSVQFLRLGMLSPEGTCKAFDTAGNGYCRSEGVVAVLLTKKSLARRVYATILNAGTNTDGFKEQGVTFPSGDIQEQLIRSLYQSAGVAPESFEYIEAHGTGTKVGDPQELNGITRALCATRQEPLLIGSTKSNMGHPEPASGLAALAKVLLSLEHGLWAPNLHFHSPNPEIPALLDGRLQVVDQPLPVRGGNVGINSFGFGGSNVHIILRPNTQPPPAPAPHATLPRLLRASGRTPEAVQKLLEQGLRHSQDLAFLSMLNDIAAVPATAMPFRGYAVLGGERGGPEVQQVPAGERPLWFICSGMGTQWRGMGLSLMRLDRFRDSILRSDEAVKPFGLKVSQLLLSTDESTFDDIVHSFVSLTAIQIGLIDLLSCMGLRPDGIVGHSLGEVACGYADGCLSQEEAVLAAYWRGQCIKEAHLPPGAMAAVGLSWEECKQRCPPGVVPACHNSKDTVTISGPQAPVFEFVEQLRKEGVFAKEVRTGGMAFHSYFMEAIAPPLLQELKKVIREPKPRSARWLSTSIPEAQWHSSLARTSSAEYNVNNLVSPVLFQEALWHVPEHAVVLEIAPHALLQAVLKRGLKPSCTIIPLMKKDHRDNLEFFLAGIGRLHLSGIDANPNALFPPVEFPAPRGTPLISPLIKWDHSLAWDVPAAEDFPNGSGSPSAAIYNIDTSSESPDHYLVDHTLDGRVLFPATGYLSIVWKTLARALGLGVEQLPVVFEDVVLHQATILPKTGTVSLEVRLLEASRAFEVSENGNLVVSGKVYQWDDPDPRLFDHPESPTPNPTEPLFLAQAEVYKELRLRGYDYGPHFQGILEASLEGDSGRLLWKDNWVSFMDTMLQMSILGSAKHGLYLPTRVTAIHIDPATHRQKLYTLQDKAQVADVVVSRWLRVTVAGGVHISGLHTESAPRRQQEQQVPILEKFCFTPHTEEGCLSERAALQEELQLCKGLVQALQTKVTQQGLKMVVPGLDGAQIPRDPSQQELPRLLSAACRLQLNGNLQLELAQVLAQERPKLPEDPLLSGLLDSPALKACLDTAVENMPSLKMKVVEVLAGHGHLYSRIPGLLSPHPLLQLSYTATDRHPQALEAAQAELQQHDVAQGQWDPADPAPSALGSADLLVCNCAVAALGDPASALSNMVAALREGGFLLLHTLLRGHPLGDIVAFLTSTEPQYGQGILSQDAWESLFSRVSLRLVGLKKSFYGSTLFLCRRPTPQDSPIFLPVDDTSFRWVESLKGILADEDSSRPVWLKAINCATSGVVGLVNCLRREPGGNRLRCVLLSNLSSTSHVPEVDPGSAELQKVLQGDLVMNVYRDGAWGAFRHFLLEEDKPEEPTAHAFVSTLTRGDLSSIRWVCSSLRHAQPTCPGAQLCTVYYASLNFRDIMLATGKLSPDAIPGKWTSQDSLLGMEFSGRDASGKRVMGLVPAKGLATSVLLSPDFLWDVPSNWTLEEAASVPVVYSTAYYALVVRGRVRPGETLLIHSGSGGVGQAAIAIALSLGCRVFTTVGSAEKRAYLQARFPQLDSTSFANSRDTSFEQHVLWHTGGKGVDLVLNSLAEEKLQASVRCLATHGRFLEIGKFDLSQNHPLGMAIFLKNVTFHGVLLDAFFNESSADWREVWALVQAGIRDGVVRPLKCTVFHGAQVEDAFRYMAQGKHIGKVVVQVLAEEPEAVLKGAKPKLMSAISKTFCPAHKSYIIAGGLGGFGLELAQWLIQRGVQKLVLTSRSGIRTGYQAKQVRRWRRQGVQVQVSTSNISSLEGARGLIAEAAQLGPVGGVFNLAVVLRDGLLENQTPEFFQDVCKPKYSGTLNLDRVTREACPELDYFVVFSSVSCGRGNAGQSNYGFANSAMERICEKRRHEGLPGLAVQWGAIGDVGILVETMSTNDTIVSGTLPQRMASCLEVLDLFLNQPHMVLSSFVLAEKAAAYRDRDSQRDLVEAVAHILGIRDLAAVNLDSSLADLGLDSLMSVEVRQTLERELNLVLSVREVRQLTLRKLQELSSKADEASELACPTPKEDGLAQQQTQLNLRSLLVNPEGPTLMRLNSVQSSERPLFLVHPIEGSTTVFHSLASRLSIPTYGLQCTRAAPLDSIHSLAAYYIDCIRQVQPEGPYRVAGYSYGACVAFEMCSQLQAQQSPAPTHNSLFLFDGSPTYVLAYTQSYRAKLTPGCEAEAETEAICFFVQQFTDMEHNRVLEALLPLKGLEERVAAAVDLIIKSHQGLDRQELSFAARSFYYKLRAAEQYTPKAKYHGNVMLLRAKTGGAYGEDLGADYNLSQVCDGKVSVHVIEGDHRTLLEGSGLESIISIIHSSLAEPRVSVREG
From the text: Biochemical activity testing of human fatty acid synthase FASN
Fatty acid synthase FASN is a multifunctional enzyme with seven catalytic activities thereby synthesising long chain fatty acids especially palmitoyl-CoA in the presence of co-factor NADPH starting from the substrates acetyl-CoA and malonyl-CoA. The reductive synthesis is realized by the oxidation of NADPH to NADP. Since NADPH has a high fluorescence intensity quantum yield compared to NADP with excitation at 340 nm and emission at 460 nm, the reaction can be monitored via the decrease in fluorescence intensity. The biochemical FASN activity testing was performed as 384 well two-time-point kinetic fluorescence intensity assay format in Greiner low volume medium binding 384-well black microtiter plates in a total assay volume of 8 μl and was used for high throughput screen. In each well 3 μl 40 nM human recombinant full-length fatty acid synthase (produced in-house in SF9 cells) were dispensed in the following assay buffer: 50 mM potassium phosphate buffer pH 7.0, 0.005% (w/v) BSA, 2 mM Glutathione, 0.02% Tween-20. Then 2 μl of 200 μM NADPH in assay buffer were added, followed by the addition of the test compounds in 10 dilution concentrations starting with 30 μM (final concentration) to get a final DMSO content of 1% (v/v). The mixture was incubated for at least 15 min at room temperature. After the pre-incubation the enzymatic reaction was started by the addition of 2 μl substrate solution (80 μM acetyl-CoA, 240 μM malonyl-CoA). A first fluorescence intensity measurement (time point one) was performed with an Envision multimode reader (Perkin Elmer LAS Germany GmbH) at excitation wavelength 340 nm (lamp mode) and emission wavelength 460 nm. The reaction was incubated for 30 minutes at room temperature. After this the fluorescence intensity was measured again in the Envision using the same parameters as described above (second time point measurement). The data were analysed by subtracting the first time point measurement value from the second time point measurement value (after the enzymatic reaction). The differences of the emission signals were determined. These reflect directly the conversion rate of NADPH. The full value used was the inhibitor-free reaction. A pharmacological zero value was used like GSK837149A (Sigma-Aldrich) in a final concentration of 5-10 μM. The inhibitory values (IC50) were determined using either the program Symyx Assay Explorer® or Condosseo® from GeneData.
For `CCC(=O)N[C@H]1CC[C@@H](N(C)C(=O)c2ccc(-c3ccccc3)cc2)C1` [Compound A8, biphenyl-4-carboxylic acid methyl-((1R,3S)-3-propionylamino-cyclopentyl)-amide], the IC50 was under 300 nM.
Compound `CCC(=O)N[C@H]1CC[C@@H](N(C)C(=O)c2ccc(-c3ccc4c(ccn4C)c3)c(F)c2)C1` [Compound A108, 3-fluoro-N-methyl-4-(1-methyl-1H-indol-5-yl)-N-((1R,3S)-3-propionylamino-cyclopentyl)-benzamide] has an IC50 of under 300 nM.
Work on `CCC(=O)N[C@H]1CC[C@@H](N(C)C(=O)c2cnc(-c3ccc4[nH]ccc4c3)c(F)c2)C1` [Compound A140, 5-fluoro-6-(1H-indol-5-yl)-N-methyl-N-((1R,3S)-3-propionylamino-cyclopentyl)-nicotinamide] yielded an IC50 of under 300 nM.
`CCC(=O)N[C@H]1CC[C@@H](N(C)C(=O)c2ccc(-c3cnc4ccccc4c3)cc2)C1` [Compound A72, N-methyl-N-((1R,3S)-3-propionylamino-cyclopentyl)-4-quinolin-3-yl-benzamide] showed an IC50 of under 300 nM.
For `CC(C)CC(=O)N[C@H]1CC[C@@H](N(C)C(=O)c2ccc(-c3nc4ccccc4o3)cc2)C1` [Compound A35, 4-benzoxazol-2-yl-N-methyl-N-[(1R,3S)-3-(3-methyl-butyrylamino)-cyclopentyl]-benzamide], the IC50 was under 300 nM.
Compound `CCCC1CCC(c2ccc(-c3ccc(C(=O)N(C)[C@@H]4CC[C@H](NC(=O)CC)C4)cc3)cc2)OC1` (stereo partly drawn) [Compound A89, 4′-(5-propyl-tetrahydro-pyran-2-yl)-biphenyl-4-carboxylic acid methyl-((1R,3S)-3-propionylamino-cyclopentyl)-amide] has an IC50 of 300 to 3000 nM.
`CCC(=O)N[C@H]1CC[C@@H](N(C)C(=O)c2ccc(-c3ccc4[nH]ccc4c3F)cc2)C1` [Compound A116, 4-(4-fluoro-1H-indol-5-yl)-N-methyl-N-((1R,3S)-3-propionylamino-cyclopentyl)-benzamide] showed an IC50 of under 300 nM.
For `CCC(=O)N[C@H]1CC[C@@H](N(C)C(=O)c2ccc(-c3ccc4[nH]ccc4c3F)c(F)c2)C1` [Compound A151, 3-fluoro-4-(4-fluoro-1H-indol-5-yl)-N-methyl-N-((1R,3S)-3-propionylamino-cyclopentyl)-benzamide], the IC50 was under 300 nM.
`CC[C@@H](C)CC(=O)N[C@@H]1CC[C@@H](N(C)C(=O)c2ccc(-c3nc4ccccc4o3)cc2)C1` [Compound A168, 4-benzoxazol-2-yl-N-methyl-N-[(1R,3R)-3-((R)-3-methyl-pentanoylamino)-cyclopentyl]-benzamide] was tested, and the IC50 was 3000 to 50000 nM.
`CCC(=O)N[C@H]1CC[C@@H](N(C)C(=O)c2ccc(-c3ccc4c(cnn4C)c3)cc2)C1` [Compound A75, N-methyl-4-(1-methyl-1H-indazol-5-yl)-N-((1R,3S)-3-propionylamino-cyclopentyl)-benzamide] gave an IC50 of under 300 nM.
`CCC(=O)N[C@H]1CC[C@@H](N(C)C(=O)c2ccc(-c3ccc4[nH]cc(C(N)=O)c4c3)c(F)c2)C1` [Compound A160, 5-{2-fluoro-4-[methyl-((1R,3S)-3-propionylamino-cyclopentyl)-carbamoyl]-phenyl}-1H-indole-3-carboxylic acid amide] was tested, and the IC50 was under 300 nM.
For `CN(C(=O)c1ccc(-c2nc3ccccc3o2)cc1)[C@@H]1CC[C@H](NC(=O)c2ccccc2)C1` [Compound A20, 4-benzoxazol-2-yl-N-((1R,3S)-3-benzoylamino-cyclopentyl)-N-methyl-benzamide], the IC50 was 300 to 3000 nM.
With `CCC(=O)N[C@H]1CC[C@@H](N(C)C(=O)c2ccc(-c3nc4ccc(Cl)cc4o3)nc2)C1` [Compound A153, 6-(6-chloro-benzoxazol-2-yl)-N-methyl-N-((1R,3S)-3-propionylamino-cyclopentyl)-nicotinamide] the IC50 was under 300 nM.
In the case of `CCC(=O)N[C@H]1CC[C@@H](N(C)C(=O)c2ccc(C#Cc3ccc(Cl)cc3)cc2)C1` [Compound A14, 4-(4-chloro-phenylethynyl)-N-methyl-N-((1R,3S)-3-propionylamino-cyclopentyl)-benzamide], the IC50 is reported as under 300 nM.
With `CCC(=O)N[C@H]1CC[C@@H](N(C)C(=O)c2ccc(-c3ccc(C4CCC(C)CC4)cc3F)cc2)C1` (stereo partly drawn) [Compound A54, 2′-fluoro-4′-(4-methyl-cyclohexyl)-biphenyl-4-carboxylic acid methyl-((1R,3S)-3-propionylamino-cyclopentyl)-amide] the IC50 was 300 to 3000 nM.
`CCC(=O)N[C@H]1CC[C@@H](N(C)C(=O)c2ccc(-c3ccc(Cl)cc3F)cc2)C1` [Compound A92, 4′-chloro-2′-fluoro-biphenyl-4-carboxylic acid methyl-((1R,3S)-3-propionylamino-cyclopentyl)-amide] was tested, and the IC50 was under 300 nM.
`CCC(=O)N[C@H]1CC[C@@H](N(C)C(=O)c2ccc(-c3ccc4[nH]ccc4c3)cn2)C1` [Compound A109, 5-(1H-indol-5-yl)-pyridine-2-carboxylic acid methyl-((1R,3S)-3-propionylamino-cyclopentyl)-amide] was tested, and the IC50 was under 300 nM.
`CN(C(=O)c1ncc(-c2nc3ccc(Cl)cc3o2)cn1)[C@@H]1CC[C@H](NC(=O)[C@@H]2CCCO2)C1` [Compound A149, 5-(6-chloro-benzoxazol-2-yl)-pyrimidine-2-carboxylic acid methyl-{(1R,3S)-3-[((S)-tetrahydro-furan-2-carbonyl)-amino]-cyclopentyl}-amide] was tested, and the IC50 was 300 to 3000 nM.
With `CC(=O)NCCC(=O)N[C@H]1CC[C@@H](N(C)C(=O)c2ccc(-c3nc4ccccc4o3)cc2)C1` [Compound A38, N-[(1R,3S)-3-(3-acetylamino-propionylamino)-cyclopentyl]-4-benzoxazol-2-yl-N-methyl-benzamide] the IC50 was 300 to 3000 nM.
`CCC(=O)N[C@H]1CC[C@@H](N(C)C(=O)c2ccc(-c3ccc4cc[nH]c4c3F)nc2)C1` [Compound A157, 6-(7-fluoro-1H-indol-6-yl)-N-methyl-N-((1R,3S)-3-propionylamino-cyclopentyl)-nicotinamide] showed an IC50 of under 300 nM.
For `CCC(=O)N[C@H]1CC[C@@H](N(C)C(=O)c2ccc(-c3ccc4[nH]ccc4c3C)nn2)C1` [Compound A150, 6-(4-methyl-1H-indol-5-yl)-pyridazine-3-carboxylic acid methyl-((1R,3S)-3-propionylamino-cyclopentyl)-amide], the IC50 was under 300 nM.
`CN(C(=O)c1ccc(-c2nc3ccc(Cl)cc3o2)cc1)[C@@H]1CC[C@H](NC(=O)[C@@H]2CCCO2)C1` [Compound A138, (S)-tetrahydro-furan-2-carboxylic acid ((1S,3R)-3-{[4-(6-chloro-benzooxazol-2-yl)-benzoyl]-methyl-amino}-cyclopentyl)-amide] showed an IC50 of under 300 nM.
`CCC(=O)N[C@H]1CC[C@@H](N(C)C(=O)c2ccc(-c3ccc4nccn4c3)nc2)C1` [Compound A144, 6-imidazo[1,2-a]pyridin-6-yl-N-methyl-N-((1R,3S)-3-propionylamino-cyclopentyl)-nicotinamide] showed an IC50 of under 300 nM.
For `CCC(=O)N[C@H]1CC[C@@H](N(C)C(=O)c2ncc(-c3ccc4c(ccn4C)c3)cn2)C1` [Compound A133, 5-(1-methyl-1H-indol-5-yl)-pyrimidine-2-carboxylic acid methyl-((1R,3S)-3-propionylamino-cyclopentyl)-amide], the IC50 was under 300 nM.
With `CCC(=O)N[C@H]1CC[C@@H](N(C)C(=O)c2ccc(-c3cc(F)c4[nH]ccc4c3)cc2)C1` [Compound A121, 4-(7-fluoro-1H-indol-5-yl)-N-methyl-N-((1R,3S)-3-propionylamino-cyclopentyl)-benzamide] the IC50 was under 300 nM.
